Series [1] can be described thus: Rotarod Test in Mice (ataxic reaction). The series is classed as in vivo, mouse. Particulars: mouse, rotarod, sc; subcutaneous, t=-30 min. As to the method:
(§1) Swiss male mice (IFFA-CREDO) at 22±3 grams on the test day.
(§2) Room temperature: 21.2±0.2° C.
(§3) Rotarod (Ugobasile) at 18 rotations per minute.
(§4) t=-180 minutes and t=-120 minutes: mice trained to stay on the bar at least 120 seconds before falling off.
(§5) t=-30 minutes: Subcutaneous administration of drug at 1 mL/100 g body weight as either solution in distilled water or suspension in an aqueous solution of hydroxypropylmethylcellulose 0.2% (v/v).
(§6) t=0 minutes: Ataxic reaction: time taken for mouse to fall off the rotarod (maximum time 120 seconds).
(§7) Results: Mean±sem per group
(§8) Dunnett's test after analysis of variance (Anova one way).
On the technique in general: The rotarod test checks motor coordination on a turning rod.

The test system of series [2] is Swiss male mice. Nature of the series: Rotarod Test in Mice (ataxic reaction). The series is classed as in vivo, mouse. Particulars: subcutaneous, t=-30 min; ED50 of 10 mg/kg. As to the method:
as §1, §2, §3, §4, §5, §6, §7, §8

Series [3] relates to Swiss male mice. Nature of the series: Formalin Test in Mice: Late Phase. The series is classed as in vivo. Particulars: Mus musculus, sc, subcutaneous, t=-10 min before formalin 5%. As to the method: Formalin Test in Mice: Late Phase
Swiss male mice (IFFA-CREDO) at 22±3 grams on test day.
Room temperature: 24.5<T<24.8° C.
t=-10 minutes. Subcutaneous administration of drug at 1 mL/100 g body weight. Either as a solution in distilled water or suspension in an aqueous solution of hydroxypropylmethylcellulose 0.2% (v/v).
t=0 minutes. Formalin 5% in sterile saline (v/v) administered by intraplanatar injection (20 μL) into the left paw.
t=+15 minutes. Mouse placed in cylinder.
t=+25 minutes. Nociceptive reaction: number of times left paw is licked during the observation period.
as §7, §8
Reference: S. Hunskaar, Journal of Neuroscience Methods, 1985;14:69-76.

What is called ED50 is the dose at which the effect has come halfway, by size or by number of responders. Low values mean an effect at a small dose, high ones a need for a large dose. Take `CN(C(=O)Cc1cc2ccccc2o1)[C@H](CN1CCCC1)c1cccc(OCC(=O)O)c1` [Compound 15, (S)-(3-{1-[(Benzofuran-2-yl-acetyl)-methyl-amino]-2-pyrrolidin-1-yl-ethyl}-phenoxy)-acetic acid]: the median effective dose (ED50) at 0.5 h in series [1] is greater than 10 mg/kg. In addition, the “Mouse Rotarod percent effect (in parentheses beside ED50)” value (“Mouse Rotarod percent effect” for short) with Swiss male mice [2] turned out to be 0%. In addition, it took a dose of 2.95 mg/kg to reach the 50% effect level in the series with Swiss male mice [3] (ED50).

As to `CN(C(=O)Cc1coc2ccccc12)[C@H](CN1CCCC1)c1cccc(OCC(=O)O)c1` [Compound 19, (S)-(3-{1-[(Benzofuran-3-yl-acetyl)-methyl-amino]-2-pyrrolidin-1-yl-ethyl}-phenoxy)-acetic acid], the ED50 at 0.5 h in series [1] is greater than 10 mg/kg. Moreover, the “Mouse Rotarod percent effect” value with Swiss male mice [2] came out at 0%. The same compound showed a 50% effective dose (ED50) in the series with Swiss male mice [3] of 1.17 mg/kg.

In the series with Swiss male mice [3], `CN(C(=O)Cc1ccc(S(C)(=O)=O)cc1)[C@H](CN1CCCC1)c1cccc(OCC(=O)O)c1` [Compound 23] had a median effective dose (ED50) of 6.1 mg/kg.

Regarding `CN(C(=O)Cc1coc2ccccc12)[C@H](CN1CC[C@H](O)C1)c1cccc(OCC(=O)O)c1` [Compound 28, [S-(R*,R*)]-{3-[1-[(Benzofuran-3-yl-acetyl)-methyl-amino]-2-(3-hydroxy-pyrrolidin-1-yl)-ethyl]-phenoxy}-acetic acid], the ED50 at 0.5 h in series [1] is roughly 10 mg/kg. For the same compound, in the series on Swiss male mice [2], the “Mouse Rotarod percent effect” value is reported as 53%. This compound gave an ED50 in the series with Swiss male mice [3] of 0.36 mg/kg.

Regarding `CN(C(=O)Cc1cc2ccccc2o1)[C@H](CN1CC[C@H](O)C1)c1cccc(OCC(=O)O)c1` [Compound 33, [S-(R*,R*)]-{3-[1-[(Benzofuran-2-yl-acetyl)-methyl-amino]-2-(3-hydroxy-pyrrolidin-1-yl)-ethyl]-phenoxy}-acetic acid], the ED50 at 0.5 h in series [1] is roughly 10 mg/kg. Moreover, the “Mouse Rotarod percent effect” value in the series on Swiss male mice [2] amounted to 53%. For the same compound, the ED50 in the series on Swiss male mice [3] is 0.19 mg/kg.

`CN(C(=O)Cc1cccc2occc12)[C@H](CN1CC[C@H](O)C1)c1cccc(OCC(=O)O)c1` [Compound 38] displayed an ED50 at 0.5 h in series [1] greater than 10 mg/kg. Also, the “Mouse Rotarod percent effect” value with Swiss male mice [2] stood at 0%. The compound also returned an ED50 in the series on Swiss male mice [3] of 0.95 mg/kg.

In series [1], `CN(C(=O)Cc1ccc(S(C)(=O)=O)cc1)[C@H](CN1CC[C@H](O)C1)c1cccc(OCC(=O)O)c1` [Compound 43] gave a 50% effective dose (ED50) at 0.5 h greater than 10 mg/kg. The “Mouse Rotarod percent effect” value in the series with Swiss male mice [2] stood at 0%. Moreover, it took a dose of 0.51 mg/kg to reach the 50% effect level with Swiss male mice [3] (ED50).

(Values after patent US6057357A, “Peripherally selective kappa opioid agonists” (Warner-Lambert Company, priority 1999, dated 2000).)
